Data on twelve compounds can be found in PubChem BioAssay (NCI).

Structures are written as SMILES.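 Cultured in 96-well plates, cells were exposed to test compound for 48 hours across five concentrations. GI50 marks 50% less growth. TGI marks complete inhibition of growth.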

Among the test systems are UO-31 renal; NCI-H23 lung; SF-539 CNS; HT29 colon; NCI-H226 lung; RPMI-8226 leukemia; MCF7 breast; IGROV1 ovarian; NCI/ADR-RES ovarian; SR leukemia.
What all share (test): NCI-60 cell line screen, 48 h

Consider `O=C(O)[C@@H]1CCCCN1Cc1cc2cc3c(cc2c2cc(OCc4ccccc4)ccc12)OCO3`, for which the GI50 is 4.77 µM in the test with UO-31 renal; 21.6 µM in the test on NCI-H23 lung; 3.87 µM with SF-539 CNS; 3240 nM in the test on HT29 colon; 2090 nM in the test with NCI-H226 lung; 24 µM in the test on RPMI-8226 leukemia. Besides, the GI50 in the test with MCF7 breast was 2.05 µM; with IGROV1 ovarian, 6.53 µM; in the test with NCI/ADR-RES ovarian, 19.3 µM. In addition, the TGI turned out to be 17.4 µM in the test with UO-31 renal; 45.7 µM in the test on NCI-H23 lung; 16.6 µM in the test on SF-539 CNS; 15.8 µM in the test on HT29 colon; 5.7 µM in the test on NCI-H226 lung; 77.4 µM in the test on RPMI-8226 leukemia. Besides, the TGI came to 16.5 µM with MCF7 breast, 21.4 µM in the test with IGROV1 ovarian and 39.6 µM in the test on NCI/ADR-RES ovarian.

As to `CCCCCN(CCCCC)CC(O)c1ccc(Cl)c2ccccc12` (configuration not stated), the GI50 was 5.16 µM in the test with UO-31 renal; 4.5 µM in the test with NCI-H23 lung; 4.11 µM in the test with SR leukemia; 2240 nM with HT29 colon; 10000 nM in the test on NCI-H226 lung; 6.43 µM in the test on RPMI-8226 leukemia. For the same compound, the GI50 was 6.89 µM in the test with MCF7 breast, 4.92 µM in the test with IGROV1 ovarian and 11.1 µM in the test on NCI/ADR-RES ovarian. Besides, the TGI with UO-31 renal was found to be 20.6 µM; in the test with NCI-H23 lung, 19.9 µM; in the test on SR leukemia, 14.7 µM; in the test with HT29 colon, 20.6 µM; in the test with NCI-H226 lung, 23.1 µM; with RPMI-8226 leukemia, 27.6 µM. In addition, the TGI was determined as 20.5 µM in the test with MCF7 breast, 24.3 µM in the test with IGROV1 ovarian and 24.8 µM in the test with NCI/ADR-RES ovarian.

Take `O=C1OC(c2ccco2)=N/C1=C\c1cccc([N+](=O)[O-])c1`: the TGI with NCI-H23 lung, in the test on SF-539 CNS, in the test with SR leukemia, in the test with HT29 colon, in the test with NCI-H226 lung and in the test on RPMI-8226 leukemia was > 100 µM throughout. Further, the TGI in the test with MCF7 breast and with IGROV1 ovarian was > 100 µM in each case.

With `Cc1ccc2c(c1)CN(C(=O)CCC(=O)OCc1ccccc1)c1ccc(C)cc1CN2C(=O)CCC(=O)OCc1ccccc1`, the TGI with NCI-H23 lung, with SF-539 CNS, in the test on SR leukemia, with HT29 colon, with NCI-H226 lung and with RPMI-8226 leukemia was > 100 µM in each case. Moreover, the TGI with MCF7 breast, with IGROV1 ovarian and in the test with NCI/ADR-RES ovarian was > 100 µM in each case.

For `O=C(/C=C/c1c(O)ccc2ccccc12)c1ccccc1`, the TGI in the test with UO-31 renal is > 100 µM; in the test with NCI-H23 lung, > 100 µM; in the test with SF-539 CNS, > 100 µM; in the test on SR leukemia, > 100 µM; in the test with HT29 colon, 30.2 µM; in the test on NCI-H226 lung, > 100 µM. Also, the TGI in the test with RPMI-8226 leukemia is 80.6 µM; in the test on IGROV1 ovarian it was > 100 µM.

For the compound `Cc1[nH]c2ccccc2c1C1Cc2ccccc2N1C(=O)/C(Cl)=C/c1ccccc1` (configuration not stated), the TGI with UO-31 renal, with NCI-H23 lung, in the test on SF-539 CNS, with SR leukemia, in the test with HT29 colon and in the test with NCI-H226 lung was > 100 µM in each case. For the same compound, the TGI with RPMI-8226 leukemia and with IGROV1 ovarian was > 100 µM each time.

On to `Cc1ccc2[nH]c(C(=O)NN3C(=O)C(C)SC34CCCC(C)C4)c(-c3ccccc3)c2c1` (configuration not stated), for which the GI50 in the test on UO-31 renal is > 100 µM; in the test on NCI-H23 lung, > 100 µM; with SF-539 CNS, > 100 µM; in the test with HT29 colon, 33900 nM; in the test on NCI-H226 lung, > 100000 nM; in the test on RPMI-8226 leukemia, 53.1 µM. Moreover, the GI50 is 32.7 µM with MCF7 breast and 59.1 µM in the test on IGROV1 ovarian. Further, the TGI with UO-31 renal, in the test on NCI-H23 lung, in the test with SF-539 CNS, with HT29 colon, with NCI-H226 lung and in the test on RPMI-8226 leukemia was > 100 µM throughout. Also, the TGI with MCF7 breast and in the test with IGROV1 ovarian was > 100 µM throughout.

As for `CNc1nc(N)c(N=O)c(Nc2ccc(Br)cc2)n1`, the TGI in the test with UO-31 renal, in the test on NCI-H23 lung, with SF-539 CNS, in the test on SR leukemia, in the test on HT29 colon and with RPMI-8226 leukemia was > 100 µM in each case. The TGI in the test on MCF7 breast, in the test with IGROV1 ovarian and in the test on NCI/ADR-RES ovarian was > 100 µM throughout.

With `COc1cc2c(c(OC)c1OC)-c1c(cc3c(c1OC)OCO3)C1OC2C(C)C1C` (configuration not stated) (tested in a mixture with another compound), the TGI in the test on UO-31 renal, in the test with NCI-H23 lung, in the test on SF-539 CNS, in the test on SR leukemia, in the test with HT29 colon and in the test with NCI-H226 lung was > 100 µM throughout. The TGI with RPMI-8226 leukemia, in the test on MCF7 breast and in the test with IGROV1 ovarian was > 100 µM throughout.

For the compound `N#C/C(=C\c1cc2ccccc2c2ccccc12)c1ccccc1`, the TGI with UO-31 renal is 57.7 µM; in the test with NCI-H23 lung, > 95 µM; in the test on SF-539 CNS it was 19.8 µM; in the test on SR leukemia, 7.91 µM; in the test with HT29 colon it was 18.1 µM; with NCI-H226 lung, > 100 µM. The TGI with RPMI-8226 leukemia is > 51.1 µM; in the test on IGROV1 ovarian, > 51.8 µM.

On to `COc1ccc(/C=C\c2cc(OC)c(OC)c(OC)c2)cc1OC(=O)NCCN(C)C`, for which the TGI is > 63.2 µM in the test on UO-31 renal; 0.00431 µM in the test on NCI-H23 lung; 0.00328 µM in the test on SF-539 CNS; 19.9 µM with HT29 colon; 0.0464 µM with NCI-H226 lung; > 100 µM with MCF7 breast. For the same compound, the TGI in the test with IGROV1 ovarian was > 100 µM. The figures for the GI50 in the test on HT29 colon and with IGROV1 ovarian were 348 nM and 0.00139 µM, respectively.

For the compound `Cn1c2ccccc2c2c3[nH]c(=O)[nH]c(=O)c3c3c4ccccc4n(C)c3c21`, the GI50 in the test with NCI-H23 lung was 3.47 µM; in the test with SF-539 CNS, 1.78 µM; in the test on NCI-H226 lung it was 1660 nM; in the test with MCF7 breast it was 1.9 µM; with IGROV1 ovarian it was 2.14 µM; in the test with NCI/ADR-RES ovarian, 2.89 µM. For the same compound, the TGI in the test on NCI-H23 lung is 19.4 µM; in the test with SF-539 CNS it was 6.61 µM; with NCI-H226 lung, 5.37 µM; in the test with MCF7 breast, > 100 µM; in the test with IGROV1 ovarian, 12 µM; in the test on NCI/ADR-RES ovarian, 17 µM.
